A short description of data set [1]: Drug localization in cytoplasm of Escherichia coli ATCC 25922 at 3 times MIC by confocal microscopy. It is filed as ADME, subcellular.
Data set [2] is described as follows: Retention time of compound by RP-HPLC method. It is filed as physicochemical.
The subject of data set [3] is Escherichia coli. As to the kind of experiment: Antibacterial activity against Escherichia coli ATCC 25922 incubated for 16 to 18 hrs by broth dilution assay. It is filed as functional. To be noted: time 16-18 hrs. Background: In broth dilution the organism is exposed to a series of concentrations in liquid medium.
The subject of another data set is Klebsiella pneumoniae. Nature of the data set: Antibacterial activity against Klebsiella pneumoniae ATCC 27736 incubated for 16 to 18 hrs by broth dilution assay. It is filed as functional. As to conditions: time 16-18 hrs.
The test system of the next data set is Pseudomonas aeruginosa. As to the kind of experiment: Antibacterial activity against Pseudomonas aeruginosa ATCC BAA-427 incubated for 16 to 18 hrs by broth dilution assay. In kind it is functional. To be noted: time 16-18 hrs.
For data set [4], the system named is Staphylococcus aureus. Nature of the data set: Antibacterial activity against Staphylococcus aureus ATCC 25923 incubated for 16 to 18 hrs by broth dilution assay. To be noted: time 16-18 hrs. In kind it is functional.
The next data set has as its system Bacillus subtilis. As to the kind of experiment: Antibacterial activity against Bacillus subtilis 6633 incubated for 16 to 18 hrs by broth dilution assay. It is filed as functional. As to conditions: time 16-18 hrs.
Data set [5] concerns Staphylococcus aureus. Nature of the data set: Antibacterial activity against methicillin-resistant Staphylococcus aureus 33591 incubated for 16 to 18 hrs by broth dilution assay. In kind it is functional. To be noted: time 16-18 hrs.
Data set [6] deals with Staphylococcus aureus. As to the kind of experiment: Antibacterial activity against methicillin-resistant Staphylococcus aureus BAA-44 incubated for 16 to 18 hrs by broth dilution assay. It is filed as functional. To be noted: time 16-18 hrs.
Data set [7] in a line: Hemolytic activity in human RBC measured after 40 mins by absorbance based assay. In kind it is toxicity, cell-based, Erythrocyte. To be noted: human red blood cells.
Data set [8] relates to Escherichia coli. As to the kind of experiment: Bactericidal activity against Escherichia coli ATCC 25922 incubated for 16 to 18 hrs. In kind it is functional. As to conditions: time 16-18 hrs.
The test system of data set [9] is Escherichia coli. Nature of the data set: Antibacterial activity against Escherichia coli ATCC 25922 incubated for 16 to 18 hrs in presence of 10 percent human serum by broth dilution assay. In kind it is functional. To be noted: time 16-18 hrs.
For data set [10], the system named is Staphylococcus aureus. As to the kind of experiment: Bactericidal activity against Staphylococcus aureus ATCC 25923 incubated for 16 to 18 hrs. In kind it is functional. As to conditions: time 16-18 hrs.
The test system of data set [11] is Staphylococcus aureus. As to the kind of experiment: Antibacterial activity against Staphylococcus aureus ATCC 25923 incubated for 16 to 18 hrs in presence of 10 percent human serum by broth dilution assay. To be noted: time 16-18 hrs. It is filed as functional.
Data set [12] is described as follows: Cytotoxicity against mouse 3T3-L1 cells assessed as cell viability at 100 uM incubated for 24 hrs by MTT assay relative to control. It is filed as toxicity, cell-based. As to conditions: 3T3-L1 cells, read-out: Activity.
A short description of data set [13]: Cytotoxicity against rat L6 cells assessed as cell viability at 100 uM incubated for 24 hrs by MTT assay relative to control. In kind it is toxicity, cell-based. To be noted: L6 cells, read-out: Activity. A general note: Formazan colour is commonly taken as a measure of viable cells.
Data set [14] concerns Escherichia coli. Nature of the data set: Bactericidal activity against Escherichia coli ATCC 25922 at MIC incubated for 45 mins by time kill assay. It is filed as functional, organism-based.
Data set [15] deals with Staphylococcus aureus. Nature of the data set: Bactericidal activity against Staphylococcus aureus ATCC 25923 at MIC incubated for 45 mins by time kill assay. It is filed as functional, organism-based.
The subject of data set [16] is Escherichia coli. As to the kind of experiment: Bactericidal activity against Escherichia coli ATCC 25922 at MIC incubated for 30 mins by time kill assay. It is filed as functional, organism-based.
Data set [17] has as its system Staphylococcus aureus. Nature of the data set: Bactericidal activity against Staphylococcus aureus ATCC 25923 at MIC incubated for 30 mins by time kill assay. In kind it is functional, organism-based.
Data set [18] concerns Escherichia coli. As to the kind of experiment: Induction of resistance development in Escherichia coli ATCC 25922 assessed as fold increase in MIC at sub-MIC measured after 30 passages relative to control. In kind it is functional.
Data set [19] has as its system Staphylococcus aureus. Nature of the data set: Induction of resistance development in Staphylococcus aureus ATCC 25923 assessed as fold increase in MIC at sub-MIC measured after 30 passages relative to control. It is filed as functional.
Data set [20] deals with Escherichia coli. As to the kind of experiment: Induction of resistance development in Escherichia coli ATCC 25922 assessed as fold increase in MIC at sub-MIC measured after 25 passages relative to control. It is filed as functional.
Data set [21] concerns Staphylococcus aureus. Nature of the data set: Induction of resistance development in Staphylococcus aureus ATCC 25923 assessed as fold increase in MIC at sub-MIC measured after 25 passages relative to control. In kind it is functional.
For data set [22], the system named is Staphylococcus aureus. Nature of the data set: Induction of resistance development in methicillin-resistant Staphylococcus aureus 33591 assessed as fold increase in MIC at sub-MIC measured after 30 passages relative to control. It is filed as functional.
For data set [23], the system named is Staphylococcus aureus. As to the kind of experiment: Induction of resistance development in methicillin-resistant Staphylococcus aureus BAA-44 assessed as fold increase in MIC at sub-MIC measured after 30 passages relative to control. It is filed as functional.
In data set [24] the test system is Escherichia coli. As to the kind of experiment: Induction of membrane depolarization in Escherichia coli ATCC 25922 by diSC3-5 dye based analysis. It is filed as functional, organism-based.
Data set [25] deals with Staphylococcus aureus. As to the kind of experiment: Induction of membrane depolarization in Staphylococcus aureus ATCC 25923 by diSC3-5 dye based analysis. It is filed as functional, organism-based.
In data set [26] the test system is Escherichia coli. Nature of the data set: Disruption of plasma membrane integrity in Escherichia coli ATCC 25922 by SYTOX-Green uptake assay. It is filed as functional, organism-based.
In data set [27] the test system is Staphylococcus aureus. As to the kind of experiment: Disruption of plasma membrane integrity in Staphylococcus aureus ATCC 25923 by SYTOX-Green uptake assay. It is filed as functional, organism-based.
In data set [28] the test system is Escherichia coli. As to the kind of experiment: Disruption of membrane integrity in Escherichia coli ATCC 25922 by PI staining based analysis. In kind it is functional, organism-based.
The test system of data set [29] is Staphylococcus aureus. Nature of the data set: Disruption of membrane integrity in Staphylococcus aureus ATCC 25923 by PI staining based analysis. It is filed as functional, organism-based.
Data set [30] in a line: Hemolytic activity in human RBC assessed as disruption of membrane integrity by Alexa Fluor-Annexin V staining based analysis. It is filed as toxicity, cell-based. As to conditions: erythrocyte.
For data set [31], the system named is Escherichia coli. As to the kind of experiment: Induction of cell membrane damage in Escherichia coli ATCC 25922 at 3 times MIC incubated for 60 mins by SEM analysis. In kind it is functional, organism-based.
The subject of data set [32] is Staphylococcus aureus. Nature of the data set: Induction of cell membrane damage in Staphylococcus aureus ATCC 25923 at 3 times MIC incubated for 60 mins by SEM analysis. In kind it is functional, organism-based.
Data set [33] relates to Mycolicibacterium smegmatis. As to the kind of experiment: Antitubercular activity against Mycobacterium smegmatis incubated for 24 hrs by rezasurin dye based assay. In kind it is functional.
In data set [34] the test system is Mycolicibacterium smegmatis. Nature of the data set: Antimycobacterial activity against Mycobacterium smegmatis assessed as reduction in bacterial growth at 2 times MIC pretreated for 1 hr followed by compound removal and subsequent culturing in fresh media without compound for 24 hrs measured after 4 days. In kind it is functional, organism-based.
The subject of data set [35] is Mycolicibacterium smegmatis. As to the kind of experiment: Disruption of cell membrane integrity in Mycobacterium smegmatis incubated for 2 hrs by EtBr uptake assay. It is filed as functional, organism-based.
A short description of data set [36]: Toxicity in mouse assessed as animal survival at 15 mg/kg, iv administered each day for 5 days measured after 7 days post-last dose. It is filed as organism-based. To be noted: in vivo, 120 h, time 5 day.
Data set [37] can be described thus: Toxicity in mouse assessed as change in serum AST level at 15 mg/kg, iv administered each day for 5 days measured after 7 days post-last dose. As to conditions: in vivo, 120 h, time 5 day. In kind it is organism-based.
Data set [38] can be described thus: Toxicity in mouse assessed as change in serum ALT level at 15 mg/kg, iv administered each day for 5 days measured after 7 days post-last dose. It is filed as organism-based. As to conditions: in vivo, 120 h, time 5 day.
Data set [39] is described as follows: Toxicity in BALB/c mouse infected with Mycobacterium bovis BCG assessed as animal survival at 2.5 to 5 mg/kg, iv administered once a day for 2 weeks. It is filed as organism-based. To be noted: in vivo, 336 h, dose 2.5-5 mg/kg.

The source made the active and inactive calls. Where a SMILES comes first, the peptide text is derived from it.

Regarding `CC(C)C[C@H](NC(=O)[C@H](CCCNC(=N)N)NC(=O)CNC(=O)[C@H](CC(C)C)NC(=O)[C@H](CCCNC(=N)N)NC(=O)CNC(=O)[C@H](CC(C)C)NC(=O)[C@H](CCCNC(=N)N)NC(=O)CNC(=O)[C@H](CC(C)C)NC(=O)[C@H](CCCNC(=N)N)NC(=O)CNC(=O)[C@H](CC(C)C)NC(=O)[C@H](CCCNC(=N)N)NC(=O)CNC(=O)c1cc(C(=O)O)ccc1-c1c2ccc(=[N+](C)C)cc-2oc2cc(N(C)C)ccc12)C(=O)O.[Cl-]` (HELM PEPTIDE1{[CN(C)c1ccc2c(-c3ccc(C(=O)O)cc3C(=O)[*:2])c3ccc(=[N+](C)C)cc-3oc2c1].G.R.L.G.R.L.G.R.L.G.R.L.G.R.L}$$$$V2.0), the Drug uptake result in data set [1] was “Active”.

As usually defined, the MIC is the smallest concentration in the dilution series that meets the test's criterion for growth inhibition. In general, HC50 refers to the concentration giving 50% haemolysis. The MBC is the smallest concentration meeting the test's criterion for killing. A higher MBC goes with less potent killing. Regarding H-VLGRVLGRVLGRVLGR-OH, the Retention_time in data set [2] is reported as 20.54 min. Further, the MIC against Escherichia coli [3] was found to be 1.8 µM; with Klebsiella pneumoniae it was 3.6 µM; in the data set on Pseudomonas aeruginosa, 7.3 µM; in the data set with Staphylococcus aureus [4] it was 3.6 µM; with Bacillus subtilis, 3.6 µM; in the data set with Staphylococcus aureus [5], 7.3 µM. The minimal inhibitory concentration (MIC) with Staphylococcus aureus [6] came to 3.6 µM; with Escherichia coli [9], 14.4 µM; in the data set on Staphylococcus aureus [11], 14.4 µM; in [33], 2.5 µM. The HC50 at 40 min in data set [7] is 2 mM. In addition, the MBC against Escherichia coli [8] and against Staphylococcus aureus [10] was 3.6 µM each time. For the same molecule, the viability at 24 h, 100 µM in data set [12] and in [13] was 75% each time. The outcome with Escherichia coli [14], in the data set on Staphylococcus aureus [15], in the data set on Escherichia coli [24], in the data set with Staphylococcus aureus [25], in the data set with Escherichia coli [26] and with Staphylococcus aureus [27] was Active. Also, the outcome (in the data set on Escherichia coli [28]; in the data set with Staphylococcus aureus [29]; in the data set with Escherichia coli [31]; with Staphylococcus aureus [32]; in data set [34]) was Active. Moreover, the Activity entry in the data set on Escherichia coli [16] is on record as “Active; Emerged As Swiftest Molecule”; with Staphylococcus aureus [17], “Active; Emerged As Swiftest Molecule”; in data set [30], “Non-toxic”; in data set [36] it was “Non-toxic”; in data set [37], “Non-toxic”; in data set [38], “Non-toxic”. Also, the Activity entry in data set [39] is listed as “Non-toxic”. The “fold change (FC)” value with Escherichia coli [18] amounted to 4; in the data set on Staphylococcus aureus [19] it was 4; in the data set on Escherichia coli [20], 2; in the data set with Staphylococcus aureus [21], 2; in the data set with Staphylococcus aureus [22] it was 4; with Staphylococcus aureus [23], 4. For the same molecule, the outcome in [35] was inactive.

Values taken from ChEMBL document CHEMBL6087460, “Generating a Peptide Library Using the Repeats of Amino Acid Scaffolds Created by Sliding the Framework of a 7-mer Human Chemerin Segment and Discovery of Potent Antibacterial and Antimycobacterial Peptides” (J Med Chem, 2025).
